According to PubChem BioAssay AID248 (DTP/NCI, 2004):
Values joined by “and” are separate entries in the source; they are usually repeats but may differ in a detail not shown here. Equal values may be shown once. Toxic doses and inconclusive results are not listed. Rule as the data show it: active = T/C of 150% or more; inactive = T/C below 125%.

Test system: L1210 leukemia ip in BDF1 mice, survival T/C
Test: NCI In Vivo Anticancer Drug Screen. Data for tumor model L1210 Leukemia (intraperitoneal) in B6D2F1 (BDF1) mice
Conditions: endpoint: mean survival time, higher = longer survival
How it was run: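 Ratio derived from survival: compound-dosed mice over vehicle-dosed mice, all bearing a transplantable tumor.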

[1] = dose: 25.0 mg/kg/injection, schedule: Q04DX003 (ip), vehicle: saline
[2] = dose: 100.0 mg/kg/injection, schedule: Q01DX001 (ip), vehicle: saline
[3] = dose: 100.0 mg/kg/injection, schedule: Q01DX009 (ip), vehicle: Klucel (hydroxypropylcellulose) (HPC)
[4] = dose: 200.0 mg/kg/injection, schedule: Q01DX009 (ip), vehicle: Klucel (hydroxypropylcellulose) (HPC)
[5] = dose: 100.0 mg/kg/injection, schedule: Q04DX003 (ip), vehicle: Klucel (hydroxypropylcellulose) (HPC)
[6] = dose: 200.0 mg/kg/injection, schedule: Q04DX003 (ip), vehicle: Klucel (hydroxypropylcellulose) (HPC)
[7] = dose: 400.0 mg/kg/injection, schedule: Q04DX003 (ip), vehicle: Klucel (hydroxypropylcellulose) (HPC)
[8] = dose: 400.0 mg/kg/injection, schedule: Q01DX009 (ip), vehicle: Klucel (hydroxypropylcellulose) (HPC)
[9] = dose: 100.0 mg/kg/injection, schedule: Q01DX009 (ip), vehicle: saline with Tween-80
[10] = dose: 200.0 mg/kg/injection, schedule: Q01DX009 (ip), vehicle: saline with Tween-80
[11] = dose: 100.0 mg/kg/injection, schedule: Q04DX003 (ip), vehicle: saline

Measured: T/C

C1CN2CCC1C1(C2)SSC2(CN3CCC2CC3)S1 (stereo unspecified)
inactive: dose: 6.25 mg/kg/injection, schedule: Q01DX009 (ip), vehicle: saline 107 % of control | dose: 6.25 mg/kg/injection, schedule: Q04DX003 (ip), vehicle: saline 96 % of control | dose: 12.5 mg/kg/injection, schedule: Q01DX009 (ip), vehicle: saline 96 % of control | dose: 12.5 mg/kg/injection, schedule: Q04DX003 (ip), vehicle: saline 107 % of control | dose: 25.0 mg/kg/injection, schedule: Q01DX009 (ip), vehicle: saline 119 % of control | [1] 94 % of control

CC(Oc1nc2c(c(=O)n(C)c(=O)n2C)n1C)C1CCCC1 (stereo unspecified)
inactive: dose: 50.0 mg/kg/injection, schedule: Q01DX001 (ip), vehicle: other 103 % of control | dose: 100.0 mg/kg/injection, schedule: Q01DX001 (ip), vehicle: other 100 % of control

OCC1OC(n2c(=S)[nH]c3ccccc32)C(O)C1O (stereo unspecified)
inactive: [2] 108 % of control | dose: 200.0 mg/kg/injection, schedule: Q01DX001 (ip), vehicle: saline 100 % of control | dose: 400.0 mg/kg/injection, schedule: Q01DX001 (ip), vehicle: saline 106 % of control

Cc1c(Cl)cccc1NC(=O)c1c(Cl)c(Cl)c(Cl)c(Cl)c1C(=O)O
inactive: [3] 102 % of control | [4] 103 % of control

C=C1C(=O)OC2C1CCC(C)C1CC(O)C(O)C12C (stereo unspecified)
inactive: dose: 12.5 mg/kg/injection, schedule: Q04DX003 (ip), vehicle: Klucel (hydroxypropylcellulose) (HPC) 96 % of control | dose: 25.0 mg/kg/injection, schedule: Q04DX003 (ip), vehicle: Klucel (hydroxypropylcellulose) (HPC) 101 % of control | dose: 50.0 mg/kg/injection, schedule: Q04DX003 (ip), vehicle: Klucel (hydroxypropylcellulose) (HPC) 101 % of control

CC(CCc1ccccn1)C(=O)c1ccccc1 (stereo unspecified)
inactive: dose: 222.0 mg/kg/injection, schedule: Q01DX Z (ip), vehicle: methylcellulose (MC) 93 % of control | dose: 333.0 mg/kg/injection, schedule: Q01DX Z (ip), vehicle: methylcellulose (MC) 98 % of control | dose: 500.0 mg/kg/injection, schedule: Q01DX Z (ip), vehicle: methylcellulose (MC) 94 % of control

CCN(CC)Cc1c(C)cc2oc(=O)c3c(c2c1O)CCCC3
inactive: dose: 100.0 mg/kg/injection, schedule: Q01DX001 (ip), vehicle: carboxymethylcellulose (CMC) 93 % of control | dose: 200.0 mg/kg/injection, schedule: Q01DX001 (ip), vehicle: carboxymethylcellulose (CMC) 93 % of control

C=C1C=C(c2ccccc2)N(C(=O)c2ccccc2I)CCN1C(=O)c1ccccc1I
inactive: [5] 114 % of control | [6] 89 % of control | [7] 94 % of control

CC1CCCN(c2ccc([N+](=O)[O-])cc2[N+](=O)[O-])C1 (stereo unspecified)
inactive: [3] 105 % of control | [5] 99 % of control | [4] 96 % of control | [6] 92 % of control | [8] 99 % of control | [7] 97 % of control

Cc1cc(C)c(CCl)c(C)c1CCl
inactive: [2] 119 % of control

CCCCNC(=O)Oc1cccc(NC(=O)OC)c1
inactive: [9] 96 % of control | [10] 92 % of control | dose: 400.0 mg/kg/injection, schedule: Q01DX009 (ip), vehicle: saline with Tween-80 105 % of control

CC(C)=CCC/C(C)=C/CN
inactive: [1] 101 % of control | dose: 50.0 mg/kg/injection, schedule: Q04DX003 (ip), vehicle: saline 92 % of control | dose: 100.0 mg/kg/injection, schedule: Q01DX009 (ip), vehicle: saline 95 % of control | [11] 97 % of control

O=c1cn[nH]c(=O)[nH]1
inactive: dose: 62.5 mg/kg/injection, schedule: Q01DX009 (ip), vehicle: saline 105 % of control and 107 % of control | dose: 62.5 mg/kg/injection, schedule: Q01DX010 (ip), vehicle: saline 97 % of control and 102 % of control | dose: 110.1 mg/kg/injection, schedule: Q01DX Z (ip), vehicle: carboxymethylcellulose (CMC) 107 % of control | dose: 125.0 mg/kg/injection, schedule: Q01DX009 (ip), vehicle: saline 103 % of control and 118 % of control | dose: 125.0 mg/kg/injection, schedule: Q01DX010 (ip), vehicle: saline 94 % of control and 101 % of control | dose: 132.0 mg/kg/injection, schedule: Q01DX Z (ip), vehicle: methylcellulose (MC) 97 % of control | dose: 200.0 mg/kg/injection, schedule: Q01DX Z (ip), vehicle: methylcellulose (MC) 111 % of control | dose: 220.2 mg/kg/injection, schedule: Q01DX Z (ip), vehicle: carboxymethylcellulose (CMC) 121 % of control | dose: 250.0 mg/kg/injection, schedule: Q01DX009 (ip), vehicle: saline 100 % of control and 107 % of control | dose: 250.0 mg/kg/injection, schedule: Q01DX010 (ip), vehicle: saline 108 % of control and 111 % of control | dose: 300.0 mg/kg/injection, schedule: Q01DX Z (ip), vehicle: methylcellulose (MC) 111 % of control | dose: 440.4 mg/kg/injection, schedule: Q01DX Z (ip), vehicle: carboxymethylcellulose (CMC) 113 % of control | dose: 450.0 mg/kg/injection, schedule: Q01DX Z (ip), vehicle: methylcellulose (MC) 105 % of control | dose: 500.0 mg/kg/injection, schedule: Q01DX009 (ip), vehicle: saline 112 % of control and 120 % of control | dose: 500.0 mg/kg/injection, schedule: Q01DX010 (ip), vehicle: saline 117 % of control and 118 % of control | dose: 675.0 mg/kg/injection, schedule: Q01DX Z (ip), vehicle: methylcellulose (MC) 124 % of control | dose: 880.8 mg/kg/injection, schedule: Q01DX Z (ip), vehicle: carboxymethylcellulose (CMC) 121 % of control | dose: 1011.0 mg/kg/injection, schedule: Q01DX Z (ip), vehicle: methylcellulose (MC) 109 % of control

O=c1ccccn1C/C(=N\O)c1ccccc1
inactive: [3] 98 % of control | [5] 107 % of control | [4] 100 % of control | [6] 98 % of control | [8] 107 % of control | [7] 100 % of control

OCC(O)C(O)C(O)/C=N\O (stereo unspecified)
inactive: [11] 107 % of control | dose: 200.0 mg/kg/injection, schedule: Q04DX003 (ip), vehicle: saline 107 % of control | dose: 400.0 mg/kg/injection, schedule: Q04DX003 (ip), vehicle: saline 100 % of control

CCOC(=O)/C=C/c1ccco1
inactive: dose: 50.0 mg/kg/injection, schedule: Q01DX009 (ip), vehicle: saline with Tween-80 93 % of control | [9] 96 % of control | dose: 100.0 mg/kg/injection, schedule: Q04DX003 (ip), vehicle: saline with Tween-80 103 % of control | [10] 93 % of control | dose: 200.0 mg/kg/injection, schedule: Q04DX003 (ip), vehicle: saline with Tween-80 95 % of control

CC(N)C(=O)NCCCl (stereo unspecified)
inactive: dose: 10.0 mg/kg/injection, schedule: Q01DX Z (ip), vehicle: saline 91 % of control | dose: 30.0 mg/kg/injection, schedule: Q01DX Z (ip), vehicle: saline 104 % of control | dose: 100.0 mg/kg/injection, schedule: Q01DX Z (ip), vehicle: saline 91 % of control | dose: 300.0 mg/kg/injection, schedule: Q01DX Z (ip), vehicle: saline 93 % of control

CCCC1=Cc2cc3c(cc2C1N(C)C)OCO3 (stereo unspecified)
inactive: dose: 100.0 mg/kg/injection, schedule: Q01DX001 (ip), vehicle: Klucel (hydroxypropylcellulose) (HPC) 97 % of control | dose: 200.0 mg/kg/injection, schedule: Q01DX001 (ip), vehicle: Klucel (hydroxypropylcellulose) (HPC) 97 % of control
